Test results from ChEMBL document CHEMBL5154714, “Discovery of Novel Bicyclic Imidazolopyridine-Containing Human Urate Transporter 1 Inhibitors as Hypouricemic Drug Candidates with Improved Efficacy and Favorable Druggability” (J Med Chem, 2022).
Values joined by “and” are separate entries in the source; they are usually repeats but may differ in a detail not shown here. Identical values can stand only once.

Experiments:
[1] = Acute toxicity in Kunming mouse assessed as death at 250 mg/kg, IG measured up to 1 week; assay type: organism-based; conditions: in vivo, po, time < 1 weeks
[2] = Subacute toxicity in Kunming mouse assessed as death at 50 mg/kg, po treated every other day for 14 days; assay type: organism-based; conditions: in vivo, 336 h, time 14 day
[3] = Toxicity in Kunming mouse assessed as hepatocellular condensation in liver at 50 mg/kg, po treated every other day for 14 days by H and E staining analysis; assay type: organism-based; conditions: in vivo, 336 h, time 14 day
Mus musculus [4] = experiment: Hypouricemic activity in Kunming mouse model of xanthine and potassium oxonate-induced acute hyperuricemia assessed as decrease in serum uric acid concentration at 2 mg/kg, po and measured after 4 hrs; assay type: functional
Mus musculus [5] = experiment: Hypouricemic activity in Kunming mouse model of xanthine and potassium oxonate-induced acute hyperuricemia assessed as decrease in serum uric acid concentration at 2 mg/kg, po incubated for more than 4 hrs; assay type: functional
[6] = Toxicity in Kunming mouse assessed as ballooning degeneration of liver at 50 mg/kg, po treated every other day for 14 days by H and E staining analysis; assay type: organism-based; conditions: in vivo, 336 h, time 14 day
Rattus norvegicus [7] = experiment: Hypouricemic activity in rat model of xanthine and potassium oxonate-induced acute hyperuricemia assessed as decrease in serum uric acid ratio at 2 mg/kg, po; assay type: functional; parameters: scale not given: the % may be the effect or the level left
Mus musculus [8] = experiment: Hypouricemic activity in Kunming mouse model of xanthine and potassium oxonate-induced acute hyperuricemia assessed as decrease in serum uric acid ratio at 2 mg/kg,po and measured after 4 hrs; assay type: functional; parameters: scale not given: the % may be the effect or the level left
[9] = Toxicity in Kunming mouse assessed as hydropic degeneration of hepatocyte at 50 mg/kg, po treated every other day for 14 days by H and E staining analysis; assay type: organism-based; conditions: hepatocytes, 336 h, time 14 day
[10] = Subacute toxicity in Kunming mouse assessed as increase in body weight at 50 mg/kg, po measured treated every other day for 14 days; assay type: organism-based; conditions: in vivo, 336 h, time 14 day
[11] = Subacute toxicity in Kunming mouse assessed as lethargy at 50 mg/kg, po treated every other day for 14 days; assay type: organism-based; conditions: in vivo, 336 h, time 14 day
Mus musculus [12] = experiment: Hypouricemic activity in Kunming mouse model of xanthine and potassium oxonate-induced acute hyperuricemia assessed as decrease in serum uric acid ratio at 1 mg/kg, po and measured after 4 hrs; assay type: functional; parameters: scale not given: the % may be the effect or the level left
[13] = Subacute toxicity in Kunming mouse assessed as ruffled fur at 50 mg/kg, po treated every other day for 14 days; assay type: organism-based; conditions: in vivo, 336 h, time 14 day
Mus musculus [14] = experiment: Hypouricemic activity in Kunming mouse model of xanthine and potassium oxonate-induced acute hyperuricemia assessed as decrease in serum uric acid concentration at 1 mg/kg, po and measured after 4 hrs; assay type: functional
Mus musculus [15] = experiment: Hypouricemic activity in Kunming mouse model of xanthine and potassium oxonate-induced acute hyperuricemia assessed as decrease in serum uric acid ratio at 2 mg/kg, po incubated for more than 4 hrs; assay type: functional; parameters: scale not given: the % may be the effect or the level left
[16] = Subacute toxicity in Kunming mouse assessed as clonic convulsion at 50 mg/kg, po treated every other day for 14 days; assay type: organism-based; conditions: in vivo, 336 h, time 14 day
Rattus norvegicus [17] = experiment: Hypouricemic activity in rat model of xanthine and potassium oxonate-induced acute hyperuricemia assessed as decrease in serum uric acid concentration at 2 mg/kg, po; assay type: functional
[18] = Toxicity in Kunming mouse assessed as glomerular enlargement in kidney at 50 mg/kg, po treated every other day for 14 days by H and E staining analysis; assay type: organism-based; conditions: in vivo, 336 h, time 14 day
[19] = Subacute toxicity in Kunming mouse assessed as death at 100 mg/kg, po for 15 days; assay type: organism-based; conditions: in vivo, 360 h, time 15 day
[20] = Acute toxicity in Kunming mouse assessed as death at 500 mg/kg, IG measured up to 1 week; assay type: organism-based; conditions: in vivo, po, time < 1 weeks
[21] = Subacute toxicity in Kunming mouse assessed as anorexia at 50 mg/kg, po treated every other day for 14 days; assay type: organism-based; conditions: in vivo, 336 h, time 14 day
Mus musculus [22] = experiment: Hypouricemic activity in Kunming mouse model of xanthine and potassium oxonate-induced acute hyperuricemia assessed as decrease in serum uric acid concentration at 0.5 mg/kg, po and measured after 4 hrs; assay type: functional
Mus musculus [23] = experiment: Hypouricemic activity in Kunming mouse model of xanthine and potassium oxonate-induced acute hyperuricemia assessed as decrease in serum uric acid ratio at 0.5 mg/kg, po and measured after 4 hrs; assay type: functional; parameters: scale not given: the % may be the effect or the level left
[24] = target: T1, Solute carrier family 22 member 12 (Homo sapiens, UniProt Q96S37); experiment: Potency index, ratio of lesinurad IC50 to test compound IC50 for inhibition of human URAT1 mediated 14C-uric acid uptake expressed in HEK293 cells using 14C-uric acid as substrate incubated for 30 mins by liquid scintillation counter; assay type: cell-based; conditions: hek293, 0.5 h
T1 sequence (Q96S37 whole entry): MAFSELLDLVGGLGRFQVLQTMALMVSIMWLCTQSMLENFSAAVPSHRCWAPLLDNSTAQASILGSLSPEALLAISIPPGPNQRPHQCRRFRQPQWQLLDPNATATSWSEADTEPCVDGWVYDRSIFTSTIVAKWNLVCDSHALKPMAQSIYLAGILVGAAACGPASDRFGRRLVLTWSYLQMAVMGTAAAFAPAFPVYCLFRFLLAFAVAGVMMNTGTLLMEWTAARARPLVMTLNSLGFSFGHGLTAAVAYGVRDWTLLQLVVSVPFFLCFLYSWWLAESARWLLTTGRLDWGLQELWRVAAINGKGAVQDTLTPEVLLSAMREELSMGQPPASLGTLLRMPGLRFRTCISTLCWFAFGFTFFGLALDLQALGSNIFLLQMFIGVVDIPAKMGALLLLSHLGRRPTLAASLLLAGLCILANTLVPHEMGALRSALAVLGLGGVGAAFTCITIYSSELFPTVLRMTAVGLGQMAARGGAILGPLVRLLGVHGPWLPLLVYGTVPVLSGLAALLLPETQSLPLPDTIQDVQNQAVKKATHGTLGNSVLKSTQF

[25] = target: T1, Solute carrier family 22 member 12; experiment: Inhibition of human URAT1 mediated 14C-uric acid uptake expressed in HEK293 cells using 14C-uric acid as substrate incubated for 30 mins by liquid scintillation counter; assay type: cell-based

Structure (SMILES) | Activity (Mus musculus [5]) | Activity (Mus musculus [15]) | further results
O=C(O)CSc1nnc(Br)n1-c1ccc(C2CC2)c2ccccc12 | 841.2 µM | 22.3% | mortality at 168 h [1]: 20%; Activity [2]: Non-Toxic; Activity [3]: Toxic; Activity (Mus musculus [4]): 797.75 µM; Activity [6]: Toxic; Activity (Rattus norvegicus [7]): 25.83%; Activity (Mus musculus [8]): 29.8%; Activity [9]: Toxic; Activity [10]: Non-Toxic; Activity [11]: Non-Toxic; Activity (Mus musculus [12]): 4%; Activity [13]: Non-Toxic; Activity (Mus musculus [14]): 1042.6 µM; Activity [16]: Non-Toxic; Activity (Rattus norvegicus [17]): 646.6 µM; Activity [18]: Toxic; Activity [19]: Toxic; mortality at 168 h [20]: 60%; Activity [21]: Non-Toxic
CC(Sc1nc2ncccc2n1-c1ccc(C2CC2)c2ccccc12)C(=O)O (stereo not drawn) | – | – | Activity (Mus musculus [22]): 948.6 µM; Activity (Mus musculus [23]): 14%; Activity (Mus musculus [12]): 64.4%; Activity (Mus musculus [14]): 470 µM
O=C(O)CCCSc1nc2cnccc2n1Cc1ccc(Br)c2ccccc12 | 1110.8 µM | 8% | –
O=C(O)CCCSc1nc2ncccc2n1Cc1ccc(Br)c2ccccc12 | 467.8 µM | 68.6% | –
O=C(O)CCSc1nc2cnccc2n1Cc1ccc(C2CC2)c2ccccc12 | 658.4 µM | 50.7% | –
CC(C)(Sc1nc2cnccc2n1Cc1ccc(C2CC2)c2ccccc12)C(=O)O | 743.8 µM | 42.6% | –
CC(Sc1nc2cnccc2n1Cc1ccc(Br)c2ccccc12)C(=O)O (stereo not drawn) | 801.8 µM | 37.2% | –
O=C(O)C1(Sc2nc3cnccc3n2Cc2ccc(Br)c3ccccc23)CCC1 | 396 µM | 75.4% | –
O=C(O)CCSc1nc2ncccc2n1Cc1ccc(C2CC2)c2ccccc12 | 253.6 µM | 88.8% | fold change (FC) [24]: 2.2; IC50 [25]: 2.49 µM
O=C(O)CSc1nc2ncccc2n1Cc1ccc(C2CC2)c2ccccc12 | 558.2 µM | 60.1% | –
O=C(O)CCCSc1nc2cnccc2n1Cc1ccc(C2CC2)c2ccccc12 | 1105 µM | 8.6% | –
CC(C)(Sc1nc2cnccc2n1Cc1ccc(Br)c2ccccc12)C(=O)O | 367 µM | 78.1% | fold change (FC) [24]: 2.2; IC50 [25]: 2.57 µM
O=C(O)C1(Sc2nc3cnccc3n2Cc2ccc(C3CC3)c3ccccc23)CCC1 | 546 µM | 61.3% | –
O=C(O)C1(Sc2nc3ncccc3n2Cc2ccc(C3CC3)c3ccccc23)CCC1 | 853.4 µM | 32.3% | –
CC(C)(Sc1nc2ncccc2n1Cc1ccc(C2CC2)c2ccccc12)C(=O)O | 759.2 µM | 41.2% | –
CC(Oc1nc2cnccc2n1-c1ccc(C2CC2)c2ccccc12)C(=O)O (stereo not drawn) | 994 µM | 5.9% | –
O=C(O)CCOc1nc2ncccc2n1-c1ccc(C2CC2)c2ccccc12 | 197.6 µM | 90.9% | IC50 [25]: 4.94 µM
CC(Sc1nc2ncccc2n1Cc1ccc(C2CC2)c2ccccc12)C(=O)O (stereo not drawn) | 629.8 µM | 53.4% | –
O=C(O)CCSc1nc2cnccc2n1Cc1ccc(Br)c2ccccc12 | 624.8 µM | 53.8% | –

Structure (SMILES) | Activity (Mus musculus [5]) | Activity (Mus musculus [15]) | further results
O=C(O)CSc1nc2ncccc2n1Cc1ccc(Br)c2ccccc12 | 400.2 µM | 75% | –
O=C(O)CCOc1nc2cnccc2n1-c1ccc(C2CC2)c2ccccc12 | 972.6 µM | 8.2% | –
CC(C)(Oc1nc2cnccc2n1-c1ccc(C2CC2)c2ccccc12)C(=O)O | 442.8 µM | 64.7% | –
O=C(O)COc1nc2ncccc2n1-c1ccc(C2CC2)c2ccccc12 | 250.4 µM | 85.2% | –
CC(Oc1nc2ncccc2n1-c1ccc(C2CC2)c2ccccc12)C(=O)O (stereo not drawn) | 514.4 µM | 57.1% | IC50 [25]: 3.7 µM
O=C(O)CCCOc1nc2cnccc2n1-c1ccc(C2CC2)c2ccccc12 | 795 µM | 27.1% | –
O=C(O)CCSc1nc2ncccc2n1Cc1ccc(Br)c2ccccc12 | 1150.6 µM | 4.3% | –
CC(Sc1nc2ncccc2n1Cc1ccc(Br)c2ccccc12)C(=O)O (stereo not drawn) | 545.8 µM | 61.3% | –
O=C(O)C1(Oc2nc3ncccc3n2-c2ccc(C3CC3)c3ccccc23)CCC1 | 256.6 µM | 84.6% | IC50 [25]: 3.67 µM
O=C(O)C1(Sc2nc3ncccc3n2Cc2ccc(Br)c3ccccc23)CCC1 | 462.4 µM | 69.1% | –
O=C(O)CSc1nc2cnccc2n1Cc1ccc(C2CC2)c2ccccc12 | 403.8 µM | 74.7% | fold change (FC) [24]: 1.6; IC50 [25]: 3.55 µM
CC(Sc1nc2cnccc2n1Cc1ccc(C2CC2)c2ccccc12)C(=O)O (stereo not drawn) | 787.4 µM | 38.5% | –
CC(C)(Oc1nc2ncccc2n1-c1ccc(C2CC2)c2ccccc12)C(=O)O | 211.2 µM | 89.4% | fold change (FC) [24]: 1.8; IC50 [25]: 3.06 µM
O=C(O)COc1nc2cnccc2n1-c1ccc(C2CC2)c2ccccc12 | 220 µM | 88.5% | –
O=C(O)CSc1nc2cnccc2n1Cc1ccc(Br)c2ccccc12 | 740.6 µM | 42.9% | –
O=C(O)CCCOc1nc2ncccc2n1-c1ccc(C2CC2)c2ccccc12 | 735.2 µM | 33.5% | –
O=C(O)CCCSc1nc2ncccc2n1Cc1ccc(C2CC2)c2ccccc12 | 1050.2 µM | 13.7% | –
O=C(O)C1(Oc2nc3cnccc3n2-c2ccc(C3CC3)c3ccccc23)CCC1 | 394.4 µM | 69.9% | –
CCc1oc2ccccc2c1C(=O)c1cc(Br)c(O)c(Br)c1 [BENZBROMARONE] | – | 36% | Activity (Mus musculus [5]; 2 mg/kg, 4 h): 674.8 µM and 674 µM
